One compound from patent publication US20040019027A1, “Method of treating cerebrotendinous xanthomatosis” (priority 2002, published 2004) can be followed below.

Series [1] deals with T1, mouse PXR (Mus musculus, UniProt O54915).
T1 sequence (O54915 104-431): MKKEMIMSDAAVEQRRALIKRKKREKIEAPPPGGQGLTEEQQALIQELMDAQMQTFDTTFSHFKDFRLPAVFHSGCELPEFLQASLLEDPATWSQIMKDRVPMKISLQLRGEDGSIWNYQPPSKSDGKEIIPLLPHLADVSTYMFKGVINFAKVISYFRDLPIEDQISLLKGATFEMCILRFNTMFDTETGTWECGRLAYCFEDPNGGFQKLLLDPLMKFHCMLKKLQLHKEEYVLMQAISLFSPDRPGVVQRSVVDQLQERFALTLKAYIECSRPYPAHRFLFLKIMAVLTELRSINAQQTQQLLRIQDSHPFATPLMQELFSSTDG
The series can be described thus: GAL-mouse PXR luciferase reporter gene assay in transfected CV-1 cells. It is filed as cell-based. The following applies: 10 μM; CV-1 cells; FIG. 3(a), FIG. 8(a). On the procedure:
CV-1 cells were transiently transfected with a GAL-mouse PXR expression vector, a GAL4 reporter construct, and a β-galactosidase vector as an internal control. Where noted, the bile acid transporter NTCP was added to the transfection to promote the transport of membrane-impermeable bile acids. Transfected cells were exposed to the indicated compounds (10 μM each), and fold activation was determined using luciferase and β-galactosidase enzyme activity assays. […] The transfected CV-1 cells were treated with multiple concentrations of each sterol. Error bars in this figure and subsequent figures represent the standard error of the mean (SEM) from representative experiments.
It is questioned whether β-cholestane-3α, 7α, 12α-triol (Triol) levels were elevated in whole liver extracts from CYP27 −/− mice. To show the level of 5β-cholestane-3α, 7α, 12α-triol in mouse liver extract, wild-type or CYP27 −/−mouse liver tissue (0.5 g) was extracted with 7.5 ml of ethyl acetate/methanol (2:1, vol/vol) along with 5β-cholestane-3β,5α,6β-triol (25 μg) as an internal control for extraction efficiency. […] The extraction was repeated three times, and the organic fraction was pooled and evaporated. To remove the vast excess of cholesterol that interferes with subsequent gas chromatography-mass spectroscopy analysis, the evaporated residue was dissolved in 0.5 ml of chloroform/acetone (35:25, vol/vol) and applied to a Bond Elut SI cartridge (Varian, 500 mg). Cholesterol was removed by washing with 6 ml of chloroform/acetone (35:25, vol/vol), and sterols were eluted with 7 ml of chloroform/acetone/methanol (35:25:20, vol/vol/vol). The sterol fraction was evaporated and dissolved in acetonitrile, and a portion was silylated with N,O-bis(trimethylsilyl)-trifluoroacetamide containing 1% trimethylchlorosilane (Pierce). The silylated material was analyzed by using a Shimadzu model GC-17A gas chromatograph with a QP5000 mass spectral detector and a Hewlett-Packard Ultra 2 (cross-linked-siloxane) column. The injector port was kept at 250° C., interface temperature was kept at 280° C., and oven temperature was kept at 50° C. followed by a gradient of 30° C. min^−1 up to 300° C. The electron impact ionization source was at 70 eV. 5β-cholestane-3α, 7α, 12α-triol levels were determined by comparison to a standard curve. For transfection studies, the sterol fraction was dissolved in DMSO and added to the cell-culture media. containing DMEM with 10% delipidated FBS.
In general terms: A reporter such as luciferase makes a cellular process visible.

The test system of series [2] is PXR target genes cyp3a11, cyp2c, and oatp2. Briefly: Northern analysis of PXR target genes in primary mouse hepatocytes. The following applies: 10 μM, 24 h, FIG. 5. Format: cell-based. How it is done:
Primary mouse hepatocytes were treated with compounds (10 μM), and Northern analysis was performed using the probes as described in Example III.
Additionally, a Northern blot analysis of PXR target genes can be used to determine whether or not a molecule or compound is a PXR agonist. […] In this approach, hepatocytes are isolated, cultured in vitro, and exposed to a molecule or compound suspected to be a PXR agonist. Total RNA of the hepatocytes is isolated and subject to Northern blot analysis with probes of PXR target genes' fragments. The PXR target genes have transcriptional regulatory regions that interact with the DNA binding domain of a PXR. When a PXR agonist interacts or binds to the ligand binding domain of a PXR, the DNA binding domain of a PXR interacts with the transcriptional regulatory region of the target genes and activates the expression of the target genes. Consequently, an enhanced expression of target genes is observed in the Northern blot analysis. Commonly used target genes' fragments include cyp3a11, nucleotides from #1,065 to #1,569 of GenBank accession no. X60452; cyp2c, nucleotides from #787 to #1,193 of GenBank accession no. AK008580; and oatp2, nucleotides 2,124-2,486 of GenBank accession no. NM_021471. gapdh, nucleotides from #590 to #1,089 of GenBank accession no. NM_008094, is used as a control since gapdh is not regulated by the activation of a PXR. […]

The structures appear in SMILES notation.

For the compound `CC(=O)[C@H]1[C@H](C#N)C[C@H]2[C@@H]3CC=C4C[C@@H](O)CC[C@]4(C)[C@H]3CC[C@@]21C` [PCN, pregnenolone-16α-carbonitrile], the “activation of GAL-mouse PXR (in words)” value in series [1] is reported as “very effective agonist”. The “induction of PXR target genes cyp3a11, cyp2c, oatp2 (in words)” value in series [2] is “activated expression of the PXR target genes cyp3a11, cyp2c, and oatp2”.
